From publication PMC4800810 (Biomacromolecules, 2015)

Assays:
solubility in water = type: physicochemical; conditions: 6BIO by itself, result in words
[1] = 24 h organ biodistribution in mice with femoral fracture; type: in vivo, CD4 Swiss mice; conditions: i.v.

- solubility in water (solubility in water): only sparingly soluble in water
- drug uptake in the fractured femur over the healthy femur ([1]; 125I-labelled analogues): no statistical difference
- accumulation in the lungs, liver, and spleen ([1]; 125I-labelled, result in words): high accumulation
Substance: 6’-bromoindirubin-3’-oxime [6BIO]
